Reference: patent US5955349A, “Compositions and methods for producing heterologous polypeptides in Pichia methanolica” (ZymoGenetics, Inc., priority 1996, dated 1999)

Test system: P. methanolica cells (strain CBS6515, UV-mutagenized)
Experiment: Nystatin enrichment for auxotrophic mutants; titering of colony forming units versus control cells
Settings: 1 mg nystatin added to remainder (about 450 ml) of 500 ml culture in minimal broth with 5 g/L ammonium sulfate, one additional hour with shaking, versus untreated control cells
Experimental: Large-scale mutagenesis was then carried out using a 2-second UV exposure to provide about 20% killing. Cells were plated at approximately 10^4 cells/plate onto eight YEPD plates that were supplemented with 100 mg/L each of uracil, adenine, and leucine, which were added to supplement the growth of potential auxotrophs having the cognate deficiencies. Following UV exposure the plates were wrapped in foil and incubated overnight at 30° C. The following day the colonies on the plates (~10^5 total) were resuspended in water and washed once with water. An amount of cell suspension sufficient to give an OD600 of 0.1-0.2 was used to inoculate 500 ml of minimal broth made with yeast nitrogen base without amino acids or ammonia, supplemented with 1% glucose and 400 μg/L biotin. The culture was placed in a 2.8 L baffled Bell flask and shaken vigorously overnight at 30° C. The following day the cells had reached an OD600 of ~1.0-2.0. The cells were pelleted and resuspended in 500 ml of minimal broth supplemented with 5 g/L ammonium sulfate. The cell suspension was placed in a 2.8 L baffled Bell flask and shaken vigorously at 30° C. for 6 hours. […] The cultures were incubated with shaking for an additional hour. The control and nystatin-treated cells were then harvested by centrifugation and washed with water three times. […]

C[C@@H]1[C@H](O)[C@@H](C)/C=C/C=C/CC/C=C/C=C/C=C/C=C/C(O[C@H]2O[C@H](C)[C@@H](O)[C@H](N)[C@@H]2O)CC2O[C@](O)(CC(O)C(O)CCC(O)CC(O)CC(O)CC(=O)O[C@H]1C)CC(O)C2C(=O)O (stereo partly shown) [nystatin]
decrease in the number of viable cells (colony forming units), factor: 10^4
